Laboratory results from US11377442B2, “Small molecule agonists and antagonists of NR2F6 activity” (ZANDER THERAPEUTICS, INC., priority 2016, dated 2022).
Read-outs that look alike come from different tables or passages of the source.

Columns and labels:
Assay type in all cases: cell-based
[1] = molecular target: T1, NR2F6 LBD (Homo sapiens, UniProt P10588); test: NR2F6 LBD transient transfection; settings: LBD
T1 construct: expressed in transfected cells
T1 sequence (P10588 165-393 limits assumed): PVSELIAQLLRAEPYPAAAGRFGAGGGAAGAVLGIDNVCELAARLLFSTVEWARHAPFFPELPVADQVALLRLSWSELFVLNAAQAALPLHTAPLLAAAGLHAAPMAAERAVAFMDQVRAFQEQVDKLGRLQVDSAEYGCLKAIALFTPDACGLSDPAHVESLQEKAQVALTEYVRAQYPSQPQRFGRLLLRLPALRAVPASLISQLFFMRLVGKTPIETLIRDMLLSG
Outline: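 LBD-transfected cells treated at 40, 10, 2 and 0.5 μM (4 replicates); cytotoxicity measured in parallel, normalized to DMSO (0%) and zero signal (100%). Higher concentrations excluded where signal loss reflected toxicity.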

[2] = test system: Renilla; test: Renilla signal in NR2F6 agonist screening, cmpd/DMSO; settings: Renilla, F4
[3] = molecular target: T2, NR2F6 (Homo sapiens, UniProt P10588); test: NR2F6 agonist screening, Firefly signal cmpd/DMSO
T2 construct: expressed in transfected cells; also transient transfection
T2 sequence (P10588 1-404): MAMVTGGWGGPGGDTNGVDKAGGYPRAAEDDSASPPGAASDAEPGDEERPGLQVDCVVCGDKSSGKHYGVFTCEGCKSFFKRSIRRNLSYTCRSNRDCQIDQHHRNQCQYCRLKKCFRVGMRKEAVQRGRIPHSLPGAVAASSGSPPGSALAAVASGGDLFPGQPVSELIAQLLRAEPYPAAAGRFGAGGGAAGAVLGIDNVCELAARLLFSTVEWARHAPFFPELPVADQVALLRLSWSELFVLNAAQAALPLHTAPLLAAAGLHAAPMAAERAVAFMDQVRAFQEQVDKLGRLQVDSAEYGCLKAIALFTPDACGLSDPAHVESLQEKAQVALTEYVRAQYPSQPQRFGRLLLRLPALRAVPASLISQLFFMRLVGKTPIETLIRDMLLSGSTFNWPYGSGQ

[4] = test system: HEK293 pGL4; test: Firefly_pGL signal, cmpd/DMSO (pGL4 control cells); settings: Homo sapiens
[5] = read-out: Renilla, F4, cmpd/DMSO (mean)
[6] = 1% FBS, read-out: Renilla, F4, 1% FBS, cmpd/DMSO (mean)
[7] = 10% FBS, read-out: Renilla, F4, 10% FBS, cmpd/DMSO (mean)
[8] = HEK293, 0.5 uM, pGL4, read-out: Firefly pGL4, cmpd/DMSO (mean)
[9] = HEK293, 2 uM, pGL4, read-out: Firefly pGL4, cmpd/DMSO (mean)
[10] = HEK293, 10 uM, pGL4, read-out: Firefly pGL4, cmpd/DMSO (mean)
[11] = HEK293, 40 uM, pGL4, read-out: Firefly pGL4, cmpd/DMSO (mean)
[12] = HEK293, pGL4, 1% FBS, 0.5 uM, read-out: Firefly, pGL4, 1% FBS, cmpd/DMSO (mean)
[13] = HEK293, pGL4, 1% FBS, 2 uM, read-out: Firefly, pGL4, 1% FBS, cmpd/DMSO (mean)
[14] = HEK293, pGL4, 1% FBS, 10 uM, read-out: Firefly, pGL4, 1% FBS, cmpd/DMSO (mean)
[15] = HEK293, pGL4, 1% FBS, 40 uM, read-out: Firefly, pGL4, 1% FBS, cmpd/DMSO (mean)
[16] = HEK293, pGL4, 10% FBS, 0.5 uM, read-out: Firefly, pGL4, 10% FBS, cmpd/DMSO (mean)
[17] = HEK293, pGL4, 10% FBS, 2 uM, read-out: Firefly, pGL4, 10% FBS, cmpd/DMSO (mean)
[18] = HEK293, pGL4, 10% FBS, 10 uM, read-out: Firefly, pGL4, 10% FBS, cmpd/DMSO (mean)
[19] = HEK293, pGL4, 10% FBS, 40 uM, read-out: Firefly, pGL4, 10% FBS, cmpd/DMSO (mean)

C[C@@H]1C[C@H](C)CN([C@H]2CS(=O)(=O)C[C@@H]2S(=O)(=O)c2cccs2)C1 [Compound D109] was tested, and the “Firefly LBD, cmpd/DMSO (mean)” value ([1]; 0.5 uM) was 1.1, the “Firefly LBD, cmpd/DMSO (mean)” value ([1]; 2 uM) was 2.1 and the “Firefly LBD, cmpd/DMSO (mean)” value ([1]; 10 uM) was 3.2. For the same molecule, the “Firefly LBD, cmpd/DMSO (mean)” value ([1]; 40 uM) was 0.2, the fold induction at 0.5 µM [2, 5] was 1.1 and the fold induction at 2 µM [2, 5] was 1.2. The fold induction at 10 µM [2, 5] was 1.6, the fold induction at 40 µM [2, 5] was 0.5 and the fold induction at 0.5 µM [2, 6] was 1. It also gave a fold induction at 2 µM [2, 6] of 1.3, a fold induction at 10 µM [2, 6] of 1.7 and a fold induction at 40 µM [2, 6] of 1.1. For the same molecule, the fold induction at 0.5 µM [2, 7] was 1, the fold induction at 2 µM [2, 7] was 1.2 and the fold induction at 10 µM [2, 7] was 1.9. The fold induction at 40 µM [2, 7] was 2.4, the “Firefly F4, cmpd/DMSO (mean)” value ([3]; 0.5 uM) was 1.3 and the “Firefly F4, cmpd/DMSO (mean)” value ([3]; 2 uM) was 2.3. For the same molecule, the “Firefly F4, cmpd/DMSO (mean)” value ([3]; 10 uM) was 4.2, the “Firefly F4, cmpd/DMSO (mean)” value ([3]; 40 uM) was 0.4 and the “F4, Firefly/Renilla for S/B(F4) > 3” value ([3]; 1% FBS, 10 uM) was 3.1. For the same molecule, the “Firefly, F4/pGL4 for S/B(F4) > 3” value ([3]; 1% FBS, 10 uM) was 2.6, the “F4, Firefly/Renilla for S/B(F4) > 3” value ([3]; 10% FBS, 10 uM) was 3.3 and the “Firefly, F4/pGL4 for S/B(F4) > 3” value ([3]; 10% FBS, 10 uM) was 3.0. For the same molecule, the “F4, Firefly/Renilla for S/B(F4) > 3” value ([3]; 10% FBS, 40 uM) was 1.3, the “Firefly, F4/pGL4 for S/B(F4) > 3” value ([3]; 10% FBS, 40 uM) was 2.8 and the “Firefly, F4, 1% FBS, cmpd/DMSO (mean)” value ([3]; 1% FBS, 0.5 uM) was 1.5. The “Firefly, F4, 1% FBS, cmpd/DMSO (mean)” value ([3]; 1% FBS, 2 uM) was 1.6, the “Firefly, F4, 1% FBS, cmpd/DMSO (mean)” value ([3]; 1% FBS, 10 uM) was 5.5 and the “Firefly, F4, 1% FBS, cmpd/DMSO (mean)” value ([3]; 1% FBS, 40 uM) was 0.2. For the same molecule, the “Firefly, F4, 10% FBS, cmpd/DMSO (mean)” value ([3]; 10% FBS, 0.5 uM) was 1.3, the “Firefly, F4, 10% FBS, cmpd/DMSO (mean)” value ([3]; 10% FBS, 2 uM) was 1.4 and the “Firefly, F4, 10% FBS, cmpd/DMSO (mean)” value ([3]; 10% FBS, 10 uM) was 6.5. For the same molecule, the “Firefly, F4, 10% FBS, cmpd/DMSO (mean)” value ([3]; 10% FBS, 40 uM) was 3.1, the “Activity, cmpd/DMSO” value ([3]; Table 31) was 6.2 and the fold induction at 0.5 µM [4, 8] was 1. The fold induction at 2 µM [4, 9] was 1.6, the fold induction at 10 µM [4, 10] was 3.6 and the fold induction at 40 µM [4, 11] was 0.5. It also gave a fold induction at 0.5 µM [4, 12] of 1.2, a fold induction at 2 µM [4, 13] of 1.3 and a fold induction at 10 µM [4, 14] of 2.1. For the same molecule, the fold induction at 40 µM [4, 15] was 1.1, the fold induction at 0.5 µM [4, 16] was 1.4 and the fold induction at 2 µM [4, 17] was 1.2. The fold induction at 10 µM [4, 18] was 2.2 and the fold induction at 40 µM [4, 19] was 1.1.

CC(C)N[C@H]1CS(=O)(=O)C[C@@H]1S(=O)(=O)c1ccc(Cl)cc1 [Compound D118] was tested, and the “Firefly LBD, cmpd/DMSO (mean)” value ([1]; 0.5 uM) was 1.2, the “Firefly LBD, cmpd/DMSO (mean)” value ([1]; 2 uM) was 1.8 and the “Firefly LBD, cmpd/DMSO (mean)” value ([1]; 10 uM) was 3.8. For the same molecule, the “Firefly LBD, cmpd/DMSO (mean)” value ([1]; 40 uM) was 0.4, the fold induction at 0.5 µM [2, 5] was 1.1 and the fold induction at 2 µM [2, 5] was 1.3. It also gave a fold induction at 10 µM [2, 5] of 1.7, a fold induction at 40 µM [2, 5] of 1.9 and a fold induction at 0.5 µM [2, 6] of 1. The fold induction at 2 µM [2, 6] was 1.1, the fold induction at 10 µM [2, 6] was 1.6 and the fold induction at 40 µM [2, 6] was 2.3. For the same molecule, the fold induction at 0.5 µM [2, 7] was 1.2, the fold induction at 2 µM [2, 7] was 1.5 and the fold induction at 10 µM [2, 7] was 2.5. The fold induction at 40 µM [2, 7] was 5.2, the “Firefly F4, cmpd/DMSO (mean)” value ([3]; 0.5 uM) was 1.6 and the “Firefly F4, cmpd/DMSO (mean)” value ([3]; 2 uM) was 1.6. For the same molecule, the “Firefly F4, cmpd/DMSO (mean)” value ([3]; 10 uM) was 6.2, the “Firefly F4, cmpd/DMSO (mean)” value ([3]; 40 uM) was 2.4 and the “F4, Firefly/Renilla for S/B(F4) > 3” value ([3]; 1% FBS, 10 uM) was 3.2. The “Firefly, F4/pGL4 for S/B(F4) > 3” value ([3]; 1% FBS, 10 uM) was 2.5, the “F4, Firefly/Renilla for S/B(F4) > 3” value ([3]; 10% FBS, 10 uM) was 2.1 and the “Firefly, F4/pGL4 for S/B(F4) > 3” value ([3]; 10% FBS, 10 uM) was 1.8. The “F4, Firefly/Renilla for S/B(F4) > 3” value ([3]; 10% FBS, 40 uM) was 2.8, the “Firefly, F4/pGL4 for S/B(F4) > 3” value ([3]; 10% FBS, 40 uM) was 1.8 and the “Firefly, F4, 1% FBS, cmpd/DMSO (mean)” value ([3]; 1% FBS, 0.5 uM) was 1.1. For the same molecule, the “Firefly, F4, 1% FBS, cmpd/DMSO (mean)” value ([3]; 1% FBS, 2 uM) was 1.4, the “Firefly, F4, 1% FBS, cmpd/DMSO (mean)” value ([3]; 1% FBS, 10 uM) was 5.2 and the “Firefly, F4, 1% FBS, cmpd/DMSO (mean)” value ([3]; 1% FBS, 40 uM) was 0.5. For the same molecule, the “Firefly, F4, 10% FBS, cmpd/DMSO (mean)” value ([3]; 10% FBS, 0.5 uM) was 1.2, the “Firefly, F4, 10% FBS, cmpd/DMSO (mean)” value ([3]; 10% FBS, 2 uM) was 1.3 and the “Firefly, F4, 10% FBS, cmpd/DMSO (mean)” value ([3]; 10% FBS, 10 uM) was 5.1. For the same molecule, the “Firefly, F4, 10% FBS, cmpd/DMSO (mean)” value ([3]; 10% FBS, 40 uM) was 15, the fold induction at 0.5 µM [4, 8] was 1.2 and the fold induction at 2 µM [4, 9] was 1.5. The fold induction at 10 µM [4, 10] was 4.8, the fold induction at 40 µM [4, 11] was 0.4 and the fold induction at 0.5 µM [4, 12] was 0.9. For the same molecule, the fold induction at 2 µM [4, 13] was 1.2, the fold induction at 10 µM [4, 14] was 2.1 and the fold induction at 40 µM [4, 15] was 0.9. It also gave a fold induction at 0.5 µM [4, 16] of 1.2, a fold induction at 2 µM [4, 17] of 1.2 and a fold induction at 10 µM [4, 18] of 2.9. The fold induction at 40 µM [4, 19] was 8.1.
